Data on 19 compounds can be found in patent publication US20060094749A1, “Substituted pyridoxines as anti-platelet agents” (Medicure International Inc., priority 2004, published 2006).

Format in all cases: cell-based
For test [1], the system named is platelets (platelet rich plasma). Briefly: Inhibition of platelet aggregation, thrombin receptor activating peptide (TRAP) as agonist. The following applies: TRAP 12 μM, human PRP, read-out: % Reduction in Aggregation, TRAP (12 μM); for inhibition at 500 µM: compound 500 μM; for inhibition at 250 µM: compound 250 μM; for inhibition at 100 µM: compound 100 μM. The method, then:
(§1) Platelet rich plasma (PRP) was obtained by drawing whole blood from normal human donors (not on any medication) into sodium citrate tubes (3.2%), and centrifuging at 160 xg for about 10 minutes. Platelet poor plasma (PPP) was obtained by centrifuging the remainder of the sample after the platelets were removed at 800 xg for about 10 minutes. The PRP was adjusted to a count of 280×10^9/L using a mixture of PRP and PPP. The platelets (200 μL) were incubated with the test compounds (25 μL) adjusted to various concentrations (50, 100, 250, and 500 μM) for about 30 minutes at room temperature (approximate final platelet count in the incubation mixture of 250×10^9/L). The samples were incubated for about 3 minutes at about 37° C., and then transferred to the mixing wells of a Chrono-log 4 channel aggregometer (Chrono-log Corp., Havertown, Pa.). After baselines were established, the agonist (25 μL of 40 μM ADP (Sigma, St. Louis, Mo.) or 25 μL of 50 μg/mL and 10 μg/mL collagen (Helena Laboratories, Beaumont, Tex.) or 25 μL of 120 μM thrombin receptor activating peptide (TRAP) (Sigma)) was then added. Aggregation was monitored for 5 minutes at 37° C. with stirring (1000 rpm). The amplitude and slope of each tracing were calculated to determine the amount of aggregation. Control samples were performed using only solvent. The % reduction in aggregation was calculated for each sample compared to the proper solvent control.

Test [2] shares this test system. Briefly: Inhibition of platelet aggregation, collagen as agonist. Particulars: human PRP; for inhibition at 500 µM: compound 500 μM; for inhibition at 250 µM: compound 250 μM; for inhibition at 100 µM: compound 100 μM; for inhibition at 50 µM: compound 50 μM. The method, then: as §1
For test [3] the test system is unchanged. Briefly: Inhibition of platelet aggregation, ADP as agonist. Particulars: ADP 4 μM, human PRP, read-out: % Reduction in Aggregation, ADP (4 μM); for inhibition at 500 µM: compound 500 μM; for inhibition at 250 µM: compound 250 μM; for inhibition at 100 µM: compound 100 μM. The method, then:
as §1

Setting [4] is: collagen 1 μg/mL, read-out: % Reduction in Aggregation, Collagen (1 μg/mL).
Where [5] appears, read: collagen 5 μg/mL, read-out: % Reduction in Aggregation, Collagen (5 μg/mL).

As for `Cc1ncc(CNC(=O)c2cccc(C(=N)N)c2)c(CO)c1O` [Compound 2, 3-Carbamimidoyl-N-(5-hydroxy-4-hydroxymethyl-6-methyl-pyridin-3-ylmethyl)-benzamide], the inhibition at 500 µM is 6% in test [1], 3% in test [2] (setting [4]), 12% in test [2] (setting [5]) and 10% in test [3].

Take `Cc1ncc(CNC(=O)c2ccc(C(=N)N)cc2)c(CO)c1O` [Compound 5, 4-Carbamimidoyl-N-(5-hydroxyl-4-hydroxymethyl-6-methyl-pyridin-3-ylmethyl)-benzamide]: the inhibition at 500 µM in test [1] came to 84%; in test [2] (setting [4]), 91%; in test [2] (setting [5]) it was 27%; in test [3] it was 71%.

`Cc1ncc(CNCc2ccc(C(=N)N)cc2)c(CO)c1O` [Compound 7, 4-{[(5-Hydroxyl-4-hydroxymethyl-6-methyl-pyridin-3-ylmethyl)-amino]-methyl}-benzamidine]: the inhibition at 500 µM in test [1] amounted to 34%; in test [2] (setting [4]), 2%; in test [2] (setting [5]), 8%; in test [3] it was 26%.

On to `Cc1ncc(CNCc2cccc(C(=N)N)c2)c(CO)c1O` [Compound 9, 3-{[(5-Hydroxy-4-hydroxymethyl-6-methyl-pyridin-3-ylmethyl)-amino]-methyl]-benzamidine], for which the inhibition at 500 µM in test [1] is 0%; in test [2] (setting [4]) it was 0%; in test [2] (setting [5]), 10%; in test [3] it was 2%.

For `Cc1ncc(CNc2cccc(C(=N)N)c2)c(CO)c1O` [Compound 14, 3-[(5-Hydroxy-4-hydroxymethyl-6-methyl-pyridin-3-ylmethyl)-amino]-benzamidine], the inhibition at 500 µM was 8% in test [1], 0% in test [2] (setting [4]), 3% in test [2] (setting [5]) and 16% in test [3].

As for `Cc1ncc(CNC(=O)c2ccc(-c3ccc([N+](=O)[O-])nc3)cc2)c(CO)c1O` [Compound 18, N-(5-Hydroxy-4-hydroxymethyl-6-methyl-pyridin-3-ylmethyl)-4-(6-nitro-pyridin-3-yl)-benzamide], the inhibition at 250 µM in test [1] came out at 30%; in test [2] (setting [4]), 6%; in test [2] (setting [5]), 7%; in test [3], 10%.

For the compound `Cc1ncc(CNC(=O)c2ccc(-c3ccc(C(=N)N)cc3)cc2)c(CO)c1O` [Compound 20, 4′-Carbamimidoyl-biphenyl-4-carboxylic (5-hydroxyl-4-hydroxymethyl-6-methyl-pyridin-3-ylmethyl)-amide], the inhibition at 250 µM in test [1] is 95%; in test [2] (setting [4]), 94%; in test [2] (setting [5]), 64%; in test [3], 93%.

As to `COc1c(C)ncc(CNC(=O)c2ccc(-c3ccc(C(=N)N)cc3)cc2)c1CO` [Compound 23, 4′-Carbamimidoyl-biphenyl-4-carboxylic acid (4-hydroxymethyl-5-methoxy-6-methyl-pyridin-3-ylmethyl)-amide], the inhibition at 250 µM in test [1] turned out to be 27%; in test [2] (setting [4]), 19%; in test [2] (setting [5]), 17%; in test [3], 39%.

Turning to `Cc1ncc(CNC(=O)c2ccc(-c3ccc(C(=N)N)cc3)cc2)c(C(=O)O)c1O` [Compound 26, 5-{[(4′-Carbamimidoyl-biphenyl-4-carbonyl)-amino]-methyl}-3-hydroxy-2-methyl-isonicotinic acid], the inhibition at 100 µM was determined as 17% in test [1], 52% in test [2] (setting [4]), 18% in test [2] (setting [5]) and 62% in test [3].

For `COC(=O)c1c(CNC(=O)c2ccc(-c3ccc(C(=N)N)cc3)cc2)cnc(C)c1OC` [Compound 28, 5-{[(4′-Carbamimidoyl-biphenyl-4-carbonyl)-amino]-methyl}-3-methoxy-2-methyl-isonicotinic acid methyl ester], the inhibition at 250 µM in test [1] was 10%; in test [2] (setting [4]), 17%; in test [2] (setting [5]), 24%; in test [3], 46%.

For the compound `Cc1ncc(CNc2ccc(-c3ccc(C(=N)N)cc3)cn2)c(CO)c1O` [Compound 31, 4-{6-[(5-Hydroxy-4-hydroxymethyl-6-methyl-pyridin-3-ylmethyl)-amino]-pyridin-3-yl}-benzamidine], the inhibition at 250 µM in test [1] was found to be 64%; in test [2] (setting [4]) it was 74%; in test [2] (setting [5]), 28%; in test [3], 79%.

Turning to `Cc1ncc(CNc2ccc(-c3ccc(C(=N)N)cc3)cc2OC(F)(F)F)c(CO)c1O` [Compound 35], the inhibition at 250 µM in test [1] was determined as 35%; in test [2] (setting [4]), 86%; in test [2] (setting [5]), 12%; in test [3], 84%.

In the case of `Cc1ncc(CNc2ccc(-c3ccc(C(=N)N)cc3)cc2C(F)(F)F)c(CO)c1O` [Compound 37, 4′-[(5-Hydroxy-4-hydroxymethyl-6-methyl-pyridin-3-ylmethyl)-amino]-3′-trifluoromethyl-biphenyl-4-carboxamidine], the inhibition at 250 µM was 17% in test [1], 19% in test [2] (setting [4]), 6% in test [2] (setting [5]) and 43% in test [3].

In the case of `Cc1ncc(CO)c(CNc2ccc(C(=N)N)cc2)c1O` [Compound 39, 4-[(3-Hydroxy-5-hydroxymethyl-2-methyl-pyridin-4-ylmethyl)-amino]-benzamidine], the inhibition at 100 µM was 5% in test [1], 1% in test [2] (setting [4]), 8% in test [2] (setting [5]) and 3% in test [3].

As to `Cc1ncc(CNc2ccc(-c3ccc(C(=N)N)cc3)cc2)c(C)c1O` [Compound 43, 4′-[(5-Hydroxy-4,6-dimethyl-pyridin-3-ylmethyl)-amino]-biphenyl-4-carboxamidine], the inhibition at 250 µM worked out at 69% in test [1], 100% in test [2] (setting [4]), 0% in test [2] (setting [5]) and 87% in test [3].

Take `Cc1ncc(CN(Cc2ccc(C(=N)N)cc2)c2ccc(C(=N)N)cc2)c(CO)c1O` [Compound 52, 4-(N-(4-Carbamimidoyl-benzyl)-N-((5-hydroxy-4-(hydroxymethyl)-6-methylpyridin-3-yl)methyl)amino)benzamidine]: the inhibition at 50 µM came out at 95% in test [1] (compound 50 μM), 93% in test [2] (setting [4]), 7% in test [2] (setting [5]) and 95% in test [3] (compound 50 μM).

In the case of `Cc1ncc(CCNCc2ccc(C(=N)N)cc2)c(CO)c1O` [Compound 55, 4-{[2-(5-Hydroxy-4-hydroxymethyl-6-methyl-pyridin-3-yl)-ethylamino]-methyl}-benzamidine], the inhibition at 500 µM in test [1] is 75%; in test [2] (setting [4]), 24%; in test [2] (setting [5]), 20%; in test [3], 38%.

For the compound `Cc1ncc(CCNCc2cccc(C(=N)N)c2)c(CO)c1O` [Compound 57, 3-{[2-(5-Hydroxy-4-hydroxymethyl-6-methyl-pyridin-3-yl)ethylamino]methyl}-benzamidine], the inhibition at 500 µM in test [1] was determined as 14%; in test [2] (setting [4]), 6%; in test [2] (setting [5]), 0%; in test [3], 0%.

`Cc1ncc(CCNC(=O)c2ccc(C(=N)N)cc2)c(CO)c1O` [Compound 59, 4-Carbamimidoyl-N-[2-(5-hydroxy-4-hydroxymethyl-6-methyl-pyridin-3-yl)-ethyl]-benzamide]: the inhibition at 500 µM was 67% in test [1], 28% in test [2] (setting [4]), 11% in test [2] (setting [5]) and 55% in test [3].
